Measurements published in patent US12662491B2 (Redona Therapeutics, Inc., priority 2020, dated 2026).

The molecules below were run against T1, Zcchc11 enzyme (Homo sapiens, UniProt Q5TAX3) (assay: TUTase assay (Zcchc11 assay, Lin28a-dependent polyuridylation of pre-let-7)). Settings: Lin28a-dependent Zcchc11 (Z11) TUTase assay; read-out: Potency Lin28a-dep Z11 IC50.
T1 construct: made in house; host or cells: HEK293 cells (Zcchc11); E. coli Rosetta II (LIN28A)
T1 sequence (Q5TAX3 212-1420): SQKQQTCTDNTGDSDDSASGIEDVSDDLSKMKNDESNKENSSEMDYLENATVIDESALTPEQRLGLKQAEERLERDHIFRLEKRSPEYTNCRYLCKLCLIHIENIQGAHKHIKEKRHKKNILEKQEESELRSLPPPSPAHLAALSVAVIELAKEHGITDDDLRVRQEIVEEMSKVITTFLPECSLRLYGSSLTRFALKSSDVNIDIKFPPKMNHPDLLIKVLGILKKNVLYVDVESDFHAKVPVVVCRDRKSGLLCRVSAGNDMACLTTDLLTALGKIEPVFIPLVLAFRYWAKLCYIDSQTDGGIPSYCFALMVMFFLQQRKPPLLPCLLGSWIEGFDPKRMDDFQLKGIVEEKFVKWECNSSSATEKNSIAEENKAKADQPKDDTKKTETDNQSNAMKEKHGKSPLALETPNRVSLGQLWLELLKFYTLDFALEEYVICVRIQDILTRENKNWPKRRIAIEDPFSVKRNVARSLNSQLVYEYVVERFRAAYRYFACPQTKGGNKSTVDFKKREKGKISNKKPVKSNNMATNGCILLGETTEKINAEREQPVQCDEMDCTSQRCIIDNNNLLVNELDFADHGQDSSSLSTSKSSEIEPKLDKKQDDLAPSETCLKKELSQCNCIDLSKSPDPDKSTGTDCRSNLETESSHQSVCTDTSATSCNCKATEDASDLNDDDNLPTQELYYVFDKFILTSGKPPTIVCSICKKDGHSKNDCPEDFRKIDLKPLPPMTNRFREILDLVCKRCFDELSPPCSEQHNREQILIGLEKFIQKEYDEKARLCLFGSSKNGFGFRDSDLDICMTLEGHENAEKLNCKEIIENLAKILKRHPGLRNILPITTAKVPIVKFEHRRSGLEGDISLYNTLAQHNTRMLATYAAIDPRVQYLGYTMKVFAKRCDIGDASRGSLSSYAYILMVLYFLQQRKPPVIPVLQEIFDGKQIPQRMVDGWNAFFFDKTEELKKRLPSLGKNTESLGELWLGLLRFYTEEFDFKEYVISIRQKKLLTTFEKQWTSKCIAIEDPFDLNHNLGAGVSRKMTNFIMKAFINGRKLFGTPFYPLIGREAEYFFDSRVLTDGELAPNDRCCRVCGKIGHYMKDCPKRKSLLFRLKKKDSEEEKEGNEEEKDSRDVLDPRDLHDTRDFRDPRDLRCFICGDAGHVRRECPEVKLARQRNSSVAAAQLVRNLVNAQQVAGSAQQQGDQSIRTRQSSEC
Assay type: biochemical
In short: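 Potency is measured as inhibition of LIN28A-driven U-tail addition to 2 nM pre-let-7 by 0.2 nM HEK293-derived Zcchc11 fragment with 5 uM UTP at room temperature. Tail growth appears as fluorescein quenching by an annealing rhodamine-A20 probe.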

IC50, ≤ 1 µM:
CN(C)C1CN(c2ccc(-n3cc(C(=O)O)c(=O)c4cc(Cl)c(N5CCC[C@]5(C)COc5ncccc5Cl)cc43)cn2)C1 [Example 627, (R)-6-chloro-7-(2-(((3-chloropyridin-2-yl)oxy)methyl)-2-methylpyrrolidin-1-yl)-1-(6-(3-(dimethylamino)azetidin-1-yl)pyridin-3-yl)-4-oxo-1,4-dihydroquinoline-3-carboxylic acid]
CN(C)C1CN(c2ccc(-n3cc(C(=O)O)c(=O)c4cc(Cl)c(N5C6CC6C[C@@H]5COc5ncccc5Cl)cc43)cn2)C1 (stereo partly drawn) [Example 628, 6-chloro-7-((3R)-3-(((3-chloropyridin-2-yl)oxy)methyl)-2-azabicyclo[3.1.0]hexan-2-yl)-1-(6-(3-(dimethylamino)azetidin-1-yl)pyridin-3-yl)-4-oxo-1,4-dihydroquinoline-3-carboxylic acid]
COc1cnc(OC[C@H]2CCCN2c2cc3c(cc2Cl)c(=O)c(C(=O)O)cn3-c2ccc(N3CC(N(C)C)C3)nc2)c(Cl)c1 [Example 629, (R)-6-chloro-7-(2-(((3-chloro-5-methoxypyridin-2-yl)oxy)methyl)pyrrolidin-1-yl)-1-(6-(3-(dimethylamino)aztidin-1-yl)pyridin-3-yl)-4-oxo-1,4-dihydroquinoline-3-carboxylic acid]
CN(C)C1CN(c2ccc(-n3cc(C(=O)O)c(=O)c4cc(F)c(N5CCC[C@@]5(C)COc5ncccc5Cl)nc43)cn2)C1 [Example 630, (S)-7-(2-(((3-chloropyridin-2-yl)oxy)methyl)-2-methylpyrrolidin-1-yl)-1-(6-(3-(dimethylamino)azetidin-1-yl)pyridin-3-yl)-6-fluoro-4-oxo-1,4-dihydro-1,8-naphthyridine-3-carboxylic acid]
[N-]=[N+]=Nc1ccc(-n2cc(C(=O)O)c(=O)c3cc(Cl)c(N4CCC[C@@H]4COc4ncccc4Cl)cc32)cn1 [Example 631, (R)-1-(6-azidopyridin-3-yl)-6-chloro-7-(2-(((3-chloropyridin-2-yl)oxy)methyl)pyrrolidin-1-yl)-4-oxo-1,4-dihydroquinoline-3-carboxylic acid]
Cc1cc2c(=O)c(C(=O)O)cn(-c3ccc(N4CC(N(C)C)C4)nc3)c2nc1N1CCC[C@@H]1COc1ncccc1Cl [Example 633, (R)-7-(2-(((3-chloropyridin-2-yl)oxy)methyl)pyrrolidin-1-yl)-1-(6-(3-(dimethylamino)azetidin-1-yl)pyridin-3-yl)-6-methyl-4-oxo-1,4-dihydro-1,8-naphthyridine-3-carboxylic acid]
CN(C)C1CN(c2ccc(-n3cc(C(=O)O)c(=O)c4cc(F)c(N5CCC[C@]5(C)COc5ncccc5Cl)c(F)c43)cn2)C1 [Example 634, (R)-7-(2-(((3-chloropyridin-2-yl)oxy)methyl)-2-methylpyrrolidin-1-yl)-1-(6-(3-(dimethylamino)azetidin-1-yl)pyridin-3-yl)-6,8-difluoro-4-oxo-1,4-dihydroquinoline-3-carboxylic acid]
CN(C)C1CN(c2ccc(-n3cc(C(=O)O)c(=O)c4cc(Cl)c(N5CCC6CC65COc5ncccc5Cl)cc43)cn2)C1 (stereo not drawn) [Example 635, 6-chloro-7-(1-(((3-chloropyridin-2-yl)oxy)methyl)-2-azabicyclo[3.1.0]hexan-2-yl)-1-(6-(3-(dimethylamino)azetidin-1-yl)pyridin-3-yl)-4-oxo-1,4-dihydroquinoline-3-carboxylic acid]
COc1ccc(C2C[C@H](COc3nc(OC)ccc3Cl)N(c3cc4c(cc3Cl)c(=O)c(C(=O)O)cn4-c3ccc(N4CC(N(C)C)C4)nc3)C2)cn1 (stereo partly drawn) [Example 636, 6-chloro-7-((2R)-2-(((3-chloro-6-methoxypyridin-2-yl)oxy)methyl)-4-(6-methoxypyridin-3-yl)pyrrolidin-1-yl)-1-(6-(3-(dimethylamino)azetidin-1-yl)pyridin-3-yl)-4-oxo-1,4-dihydroquinoline-3-carboxylic acid]
